In PMC8455565 (Scientific Reports, 2021):

What was measured:
TEC = molecular target: T1, TEC (Homo sapiens, UniProt P42680); assay: Kinase biochemical assay (FRET), TEC; conditions: read-out: inhibitory activity on TEC
T1 sequence (P42680 1-631): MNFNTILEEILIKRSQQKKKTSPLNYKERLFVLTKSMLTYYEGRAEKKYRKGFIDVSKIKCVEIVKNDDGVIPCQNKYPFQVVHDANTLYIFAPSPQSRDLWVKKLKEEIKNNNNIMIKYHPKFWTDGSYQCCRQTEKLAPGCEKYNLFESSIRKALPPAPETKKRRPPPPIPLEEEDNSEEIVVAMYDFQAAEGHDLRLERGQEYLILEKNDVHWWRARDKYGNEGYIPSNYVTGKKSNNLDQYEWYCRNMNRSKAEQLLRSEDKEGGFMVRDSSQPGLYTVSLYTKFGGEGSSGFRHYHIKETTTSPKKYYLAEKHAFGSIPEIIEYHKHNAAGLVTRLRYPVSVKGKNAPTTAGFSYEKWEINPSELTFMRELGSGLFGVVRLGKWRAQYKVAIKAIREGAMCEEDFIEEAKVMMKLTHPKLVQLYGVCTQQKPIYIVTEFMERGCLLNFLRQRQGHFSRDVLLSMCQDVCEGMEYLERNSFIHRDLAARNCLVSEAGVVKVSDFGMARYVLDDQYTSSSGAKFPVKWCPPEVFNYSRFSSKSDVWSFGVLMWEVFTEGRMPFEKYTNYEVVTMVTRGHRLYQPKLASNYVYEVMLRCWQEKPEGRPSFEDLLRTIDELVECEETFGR

CTLL-2 = assay: IL-2 induced T cell proliferation in CTLL-2; format: cell-based; conditions: Mus musculus, cellular level
BTK [1] = molecular target: T2, BTK (Homo sapiens, UniProt Q06187); assay: hBTK Lanthascreen biochemical activity
T2 sequence (Q06187 whole entry): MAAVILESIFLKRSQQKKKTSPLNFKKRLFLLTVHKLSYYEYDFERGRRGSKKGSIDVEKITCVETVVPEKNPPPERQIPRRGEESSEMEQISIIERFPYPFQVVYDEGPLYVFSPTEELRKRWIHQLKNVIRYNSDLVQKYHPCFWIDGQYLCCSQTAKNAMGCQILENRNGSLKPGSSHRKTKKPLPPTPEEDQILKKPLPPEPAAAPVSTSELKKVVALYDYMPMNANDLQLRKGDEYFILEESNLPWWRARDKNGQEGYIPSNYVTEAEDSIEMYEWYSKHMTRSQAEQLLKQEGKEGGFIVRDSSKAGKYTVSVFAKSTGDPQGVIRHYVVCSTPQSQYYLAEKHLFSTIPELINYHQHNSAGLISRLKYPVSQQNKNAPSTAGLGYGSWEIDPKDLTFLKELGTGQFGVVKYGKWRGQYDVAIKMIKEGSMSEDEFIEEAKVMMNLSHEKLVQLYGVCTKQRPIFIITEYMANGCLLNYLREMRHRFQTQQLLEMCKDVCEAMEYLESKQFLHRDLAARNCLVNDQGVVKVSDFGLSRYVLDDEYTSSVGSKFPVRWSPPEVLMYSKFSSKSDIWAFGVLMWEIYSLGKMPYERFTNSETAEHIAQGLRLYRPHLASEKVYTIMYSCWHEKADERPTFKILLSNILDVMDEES

B cells = assay: B cell inhibition in whole blood; format: cell-based
CIA model rats = assay: Histopathological assessment of arthritis in CIA rats; format: in vivo, rat; conditions: for Histological assessment (Means of the 4 indexes): mean ± SEM
Method: Briefly, the hind legs of each rat were fixed with 10% formalin, decalcified in 5% formic acid, embedded in paraffin, and cut for pathological staining. Arthritis, bone erosion and synovitis were determined by hematoxylin and eosin (H&E) staining, and cartilage damage was evaluated by safranin O staining. All parameters were scored on a scale of 0 to 4 based on severity according to the following criteria: 0 = no erosion, 1 = mild (focal subchondral erosion), 2 = moderate (multiple subchondral erosions), 3 = high (multiple subchondral erosions and focal erosion of the talus), and 4 = maximum (multiple erosions of the tarsal and metatarsal bones). This test was conducted by the Department of Pathology of Asan Medical Center (University of Ulsan College of Medicine, Republic of Korea).

[2] = Phase I pharmacokinetics in healthy volunteers; format: in vivo; conditions: male, human, plasma, oral; after multiple doses, all dose levels (BID)
Method: PK/PD data from 24 subjects who had received the drug BID among the 90 total subjects who participated in the MAD study were analyzed. Blood was collected on day 1 before drug administration and 1 h, 2 h, 4 h, and 12 h after drug administration. Blood samples were taken 3 days and 2 h after drug administration. Additional blood samples were taken on day 6 (5, 20, and 60 mg/kg), day 15 (40 mg/kg), day 17, and day 21 for PK/PD analysis.
After drug administration, whole blood was collected from CIA model rats and human subjects at the indicated times. Plasma was obtained by centrifugation at 12,000 rpm for 2 min and stored at − 20 °C until analysis.

BTK [3] = molecular target: T2, BTK; assay: BTK kinase activity, Z'-LYTE FRET biochemical assay; design: purchased Thermo Fisher Scientific PV3363; conditions: mean ± S.D; read-out: IC50, hBTK biochemical assay
Method: The kinase activity of BTK was measured using the Z′-LYTE assay based on fluorescence resonance energy transfer (FRET). […] Briefly, BTK, peptide, ATP and inhibitor mixtures were incubated for 1 h at room temperature. Then, Development Reagent A was added to each well, and incubation proceeded for another 1 h. […] The data were analyzed by GraphPad Prism 6 (GraphPad Software, CA, USA) to determine the IC50 values.

[4] = 3 mg/kg, ankle joints, vs CIA control

C=CC(=O)Nc1cccc(Oc2nc(Nc3ccc(N4CCN(C)CC4)cc3)nc3ccoc23)c1 [Poseltinib]
IC50 (TEC): < 10 nM | IC50 (CTLL-2): > 500 nM | IC50 (BTK [1]): 6 nM | IC50 (B cells): 420 nM | Histological assessment (Means of the 4 indexes) (CIA model rats; 0.3 mg/kg oral once daily): 6.9 ± 0.2 | Histological assessment (Means of the 4 indexes) (CIA model rats; 1 mg/kg oral once daily): 6.3 ± 0.2 | Histological assessment (Means of the 4 indexes) (CIA model rats; 3 mg/kg oral once daily): 4.1 ± 0.2 | arthritis index reduction (CIA model rats; [4]): 44% | bone erosion index reduction (CIA model rats; [4]): 38% | cartilage degradation index reduction (CIA model rats; [4]): 37% | synovitis index reduction (CIA model rats; [4]): 37% | Tmax [2]: 1 to 2 h | IC50 (BTK [3]): 4 nM
